“Also recorded” adds a separate entry of the source.
Columns and labels:
[1] = tested on: fibrosis in TA muscle, liver, skin and heart of 2-year old mice; experiment: Aging-induced fibrosis and fibrotic precursors in 2-year old mice after daily injection; type: in vivo; conditions: for relative changes in the % fibrotic area (Masson trichrome staining) / relative changes in the percentage fraction of fibrotic precursors (PGDFRA-positive and Ki67-positive): 7 days post-injection, 2-year old mice; for relative changes in the % fibrotic area (Masson trichrome staining) / relative changes in the percentage fraction of fibrotic precursors (PGDFRA-positive and Ki67-positive) / aging-induced fibrosis (fibrotic area) in multiple non-skeletal muscle tissues: daily injection
Source text: (§1) Some tissues were flash frozen for cryosectioning.

cryoinjured TA muscle [2] = experiment: Muscle regeneration after cryoinjury: regenerative index, myogenic proteins, myofiber diameter, grip strength after bolus injection; type: in vivo, mice; conditions: for grip strength: 14 days post-injury, 6-week old mice, prostaglandin at 0 h, rosiglitazone at 24 h post-injury; for hypertrophic growth (myofiber cross-sectional Feret diameters): prostaglandin at day 0, rosiglitazone at day 1; for regenerative index (fraction of nuclei in embryonic MHC-positive myofibers): single bolus, combinations: prostaglandin at day 0, rosiglitazone at day 1, relative to DMSO vehicle
Source text: as §1

[3] = tested on: pure primary human myoblasts; experiment: Pure primary human myoblasts treated with PGI2-related drugs (Western blot, qRT-PCR); type: cell-based; conditions: for H3K9ac and MyoD protein (Western blot) / PPARG protein levels (Western blot): pure primary human myoblasts, relative to DMSO
[4] = tested on: muscle stem cells and myoblasts in gastrocnemius, quadriceps and TA muscle; experiment: Stem cell and myoblast activation in skeletal muscles without injury, immunofluorescence 2 days after single bolus; type: in vivo, mice; conditions: for fraction of proliferative muscle stem cells (Pax7-positive Ki67-positive cells) / total pool of muscle stem cells (Pax7-positive cells) / total pool of proliferative cells (Ki67-positive cells): without injury
Source text: as §1

[5] = tested on: Ki67-positive proliferative progenitor cells in liver, heart, skin, hair follicles; experiment: Ki67+ progenitor cells in non-skeletal muscle tissues without injury, 2 days after intra-peritoneal treprostinil; type: in vivo, mice
Source text: as §1

primary human myoblasts = experiment: Proliferation of primary human myoblasts under PGI2 treatment; type: cell-based
cryoinjured TA muscle [6] = experiment: PGI2 bolus in cryoinjured TA muscle: cAMP, PPARs, H3K9ac and myogenic markers; type: in vivo, mice
[7] = liver, skin and heart, 2-year-old mice
[8] = TA muscle, 2 days after intramuscular single bolus, with or without HGF
[9] = TA muscle, 2 days after intramuscular single bolus
[10] = gastrocnemius muscle, 2 days after intra-peritoneal single bolus
[11] = gastrocnemius muscle, 2 days after intramuscular single bolus, PPARD drugs
[12] = gastrocnemius muscle, 2 days after intraperitoneal single bolus, with or without fenofibrate or WY-14643
[13] = quadriceps muscles, 2 days after intra-peritoneal single bolus
[14] = differentiating myoblasts (24 h post-differentiation)
[15] = TA muscle 1-2 days post-cryoinjury
[16] = injured TA muscle, single bolus

CCCCC[C@H](O)CC[C@@H]1[C@H]2Cc3cccc(OCC(=O)O)c3C[C@H]2C[C@H]1O [treprostinil]
relative changes in the % fibrotic area (Masson trichrome staining) ([1]; TA muscle): partially reverse the aged muscle fibrosis; also recorded: significant reversal of aging-induced fibrosis
relative changes in the percentage fraction of fibrotic precursors (PGDFRA-positive and Ki67-positive) ([1]; TA muscle): partially suppress the aged muscle fibrotic precursors
relative changes in the % fibrotic area (Masson trichrome staining) ([1]; heart tissue): partially reverse the aged cardiac fibrosis
relative changes in the percentage fraction of fibrotic precursors (PGDFRA-positive and Ki67-positive) ([1]; heart tissue): partially suppress the aged cardiac fibrotic precursors
relative changes in the % fibrotic area (Masson trichrome staining) ([1]; liver tissue): partially reverse the aged liver fibrosis
relative changes in the percentage fraction of fibrotic precursors (PGDFRA-positive and Ki67-positive) ([1]; liver tissue): partially suppress the aged liver fibrotic precursors
PDGFRA+ Ki67+ fibrotic precursor numbers in multiple non-skeletal muscle tissues [1, 7]: suppress
aging-induced fibrosis (fibrotic area) in multiple non-skeletal muscle tissues [1, 7]: significant reversal of aging-induced fibrosis
relative changes in the % fibrotic area (Masson trichrome staining) ([1]; skin tissue): partially reverse the aged skin fibrosis
relative changes in the percentage fraction of fibrotic precursors (PGDFRA-positive and Ki67-positive) ([1]; skin tissue): partially suppress the aged skin fibrotic precursors
grip strength (cryoinjured TA muscle [2]): partially restore grip strength
Pax7, MyoD, MyoG and Myh3 protein expression (Western blot densitometry) (cryoinjured TA muscle [2]; TA muscle 6 days post-cryoinjury, treprostinil at day 0, rosiglitazone at day 1 in the combination): significantly increase; also recorded: could also increase
hypertrophic growth (myofiber cross-sectional Feret diameters) (cryoinjured TA muscle [2]; TA muscle 6.5 days post-injury): increase hypertrophic growth
regenerative index (fraction of nuclei in embryonic MHC-positive myofibers) (cryoinjured TA muscle [2]; TA muscle 6.5 days post-injury): significantly increase muscle regeneration
H3K9ac and MyoD protein (Western blot) [3]: followed the same pattern of regulation as PPARG
PPARG protein levels (Western blot) [3]: stabilize and/or upregulate
percentage fraction of proliferative muscle stem cells (Pax7-positive Ki67-positive cells) [4, 8]: significantly increased; also recorded: could increase
percentage fraction of proliferative myoblasts (MyoD-positive Ki67-positive cells) [4, 8]: slightly increased; also recorded: could increase
fraction of proliferative muscle stem cells (Pax7-positive Ki67-positive cells) [4, 9]: significantly increased
fraction of proliferative muscle stem cells (Pax7-positive Ki67-positive cells) [4, 10]: significantly increased
total pool of muscle stem cells (Pax7-positive cells) [4, 10]: significantly increased
total pool of proliferative cells (Ki67-positive cells) [4, 10]: significantly increased
percentage fraction of proliferative muscle stem cells (Pax7-positive Ki67-positive cells) [4, 11]: significantly increased
percentage fraction of proliferative myoblasts (MyoD-positive Ki67-positive cells) [4, 11]: slightly increased
percentage fraction of myoblasts (MyoD-positive cells) [4, 12]: significantly increased
percentage fraction of proliferative myoblasts (MyoD-positive Ki67-positive cells) [4, 12]: significantly increased
fraction of proliferative muscle stem cells (Pax7-positive Ki67-positive cells) [4, 13]: significantly increased
total pool of muscle stem cells (Pax7-positive cells) [4, 13]: significantly increased
total pool of proliferative cells (Ki67-positive cells) [4, 13]: significantly increased
total pool of proliferative progenitor cells (Ki67-positive cells) ([5]; endoderm-derived liver tissue): significantly increased
total pool of proliferative progenitor cells (Ki67-positive cells) ([5]; endoderm-derived liver tissue, listed as Treprostinil): increase the total pool of Ki67+ progenitor cells
total pool of proliferative progenitor cells (Ki67-positive cells) ([5]; mesoderm-derived heart and cardiac muscle tissue): significantly increased; also recorded: increase the total pool of Ki67+ progenitor cells
total pool of proliferative progenitor cells (Ki67-positive cells) ([5]; neuroectoderm-derived skin tissue): significantly increased; also recorded: increase
total pool of proliferative progenitor cells (Ki67-positive cells) ([5]; skin tissue's telogen hair follicles): significantly increased; also recorded: increase

CC(C)OC(=O)C(C)(C)Oc1ccc(C(=O)c2ccc(Cl)cc2)cc1 [fenofibrate]
percentage fraction of myoblasts (MyoD-positive cells) [4, 12]: no effect
percentage fraction of proliferative myoblasts (MyoD-positive Ki67-positive cells) [4, 12]: no effect

CCCCC[C@H](O)/C=C/[C@@H]1[C@@H](CCCCCCC(=O)O)[C@@H](O)C[C@H]1O [PGF1a]
regenerative index (fraction of nuclei in embryonic MHC-positive myofibers) (cryoinjured TA muscle [2]; TA muscle 6.5 days post-injury): significantly decrease muscle regeneration; also recorded: slightly decreased regeneration

CCCCC[C@@H](/C=C/[C@H]1[C@H](CCCCCCC(=O)O)[C@H]2C[C@@H]1OO2)OO [PGG1]
regenerative index (fraction of nuclei in embryonic MHC-positive myofibers) (cryoinjured TA muscle [2]; TA muscle 6.5 days post-injury): no significant effect; also recorded: did not cause significant changes

O=C(NCCS(=O)(=O)c1ccc(C(F)(F)F)cn1)c1ccc(Cl)cc1 [GSK3787]
regenerative index (fraction of nuclei in embryonic MHC-positive myofibers) (cryoinjured TA muscle [2]; TA muscle 6.5 days post-injury): not
percentage fraction of proliferative muscle stem cells (Pax7-positive Ki67-positive cells) [4, 11]: no effect
percentage fraction of proliferative myoblasts (MyoD-positive Ki67-positive cells) [4, 11]: slightly increased

CCCCC[C@H](O)/C=C/[C@H]1C(=O)C[C@H](O)[C@@H]1C/C=C\CCCC(=O)O [PGD2, prostaglandin D2]
regenerative index (fraction of nuclei in embryonic MHC-positive myofibers) (cryoinjured TA muscle [2]; TA muscle 6.5 days post-injury): slightly but significantly increase muscle regeneration; also recorded: slightly increased regeneration

CCCCC[C@H](O)/C=C/[C@@H]1[C@H]2C/C(=C/CCCC(=O)O)O[C@H]2C[C@H]1O [PGI2, prostacyclin]
relative changes in the % fibrotic area (Masson trichrome staining) ([1]; TA muscle): partially reverse the aged muscle fibrosis; also recorded: significant reversal of aging-induced fibrosis
relative changes in the percentage fraction of fibrotic precursors (PGDFRA-positive and Ki67-positive) ([1]; TA muscle): partially suppress the aged muscle fibrotic precursors
relative changes in the % fibrotic area (Masson trichrome staining) ([1]; heart tissue): partially reverse the aged cardiac fibrosis
relative changes in the percentage fraction of fibrotic precursors (PGDFRA-positive and Ki67-positive) ([1]; heart tissue): partially suppress the aged cardiac fibrotic precursors
relative changes in the % fibrotic area (Masson trichrome staining) ([1]; liver tissue): partially reverse the aged liver fibrosis
relative changes in the percentage fraction of fibrotic precursors (PGDFRA-positive and Ki67-positive) ([1]; liver tissue): partially suppress the aged liver fibrotic precursors
aging-induced fibrosis (fibrotic area) in multiple non-skeletal muscle tissues [1, 7]: significant reversal of aging-induced fibrosis
relative changes in the % fibrotic area (Masson trichrome staining) ([1]; skin tissue): partially reverse the aged skin fibrosis
relative changes in the percentage fraction of fibrotic precursors (PGDFRA-positive and Ki67-positive) ([1]; skin tissue): partially suppress the aged skin fibrotic precursors
grip strength (cryoinjured TA muscle [2]): partially restore grip strength
hypertrophic growth (myofiber cross-sectional Feret diameters) (cryoinjured TA muscle [2]; TA muscle 6.5 days post-injury): increase hypertrophic growth
regenerative index (fraction of nuclei in embryonic MHC-positive myofibers) (cryoinjured TA muscle [2]; TA muscle 6.5 days post-injury): significantly increase muscle regeneration; also recorded: significantly promoted muscle regeneration
optimal PGI2 concentration for muscle regeneration (regenerative index saturated and peaked) (cryoinjured TA muscle [2]; titration of single bolus, TA muscle 6.5 days post-injury): 6.5 to 13 mM
proliferation (primary human myoblasts; early passage primary human myoblasts (passage 12)): significantly increased proliferation; also recorded: significantly increase the proliferation rate
proliferation (primary human myoblasts; late passage primary human myoblasts (passage 18)): significantly increased proliferation; also recorded: significantly increase the proliferation rate
mRNA markers of myoblasts including MyoD1 and Pax3 [3, 14]: increased
mRNA markers of myogenic differentiation including Myog, Myhc, Myh2, Myh3, Myh7, Myh8, Acta1 [3, 14]: sufficient to block committed myocytes from undergoing terminal differentiation; also recorded: decreased
mRNA markers of myogenic differentiation including Myhc, Myh3, Myh8, and Acta1 ([3]; proliferative myoblasts (24 h pre-differentiation)): sufficient to promote proliferative myoblasts to undergo differentiation; also recorded: increased
H3K9ac and MyoD protein (Western blot) [3]: increases; also recorded: followed the same pattern of regulation as PPARG
PPARG protein levels (Western blot) [3]: increases PPARG protein; also recorded: stabilize and/or upregulate
percentage fraction of proliferative muscle stem cells (Pax7-positive Ki67-positive cells) [4, 8]: significantly increased
percentage fraction of proliferative myoblasts (MyoD-positive Ki67-positive cells) [4, 8]: significantly decreased
fraction of proliferative muscle stem cells (Pax7-positive Ki67-positive cells) [4, 9]: significantly increased
H3K9ac levels (Western blot) (cryoinjured TA muscle [6]; [15]): increased protein acetylation and especially histone acetylation
PPARA protein (Western blot) (cryoinjured TA muscle [6]; [15]): suppresses the increase in PPARA; also recorded: suppressed PPARA protein
PPARD protein (Western blot) (cryoinjured TA muscle [6]; [15]): exerts little effect on PPARD
PPARG protein (Western blot) (cryoinjured TA muscle [6]; [15]): accelerates the increase in PPARG; also recorded: increased PPARG protein
percentage fraction of PPARG-positive cells (immunofluorescence) (cryoinjured TA muscle [6]; TA muscle 1-2 days post-freeze injury): significantly increase PPARG-positive cells
abundance of cyclic adenosine monophosphate (cAMP), MALDI-MSI (cryoinjured TA muscle [6]; TA muscle 6 days after single bolus): significantly decreased
committed myoblasts (MyoG-positive Ki67-positive cells, immunofluorescence) (cryoinjured TA muscle [6]; TA muscle over 6 days post-injury (days 2-4), single bolus at 0 h): significantly increase committed myoblasts; also recorded: significantly increased
PPARA and PPARD mRNA expression (qRT-PCR) (cryoinjured TA muscle [6]; [16]): not PPARA nor PPARD
PPARG mRNA expression (qRT-PCR) (cryoinjured TA muscle [6]; [16]): significantly increase PPARG mRNA expression
Pax7, MyoD, MyoG, Myh3 mRNA expression (qRT-PCR) (cryoinjured TA muscle [6]; [16]): significantly increased
PPARA, PPARD, PPARG, H3K9ac, PAX7, MyoD, MyoG and Myh3 protein expression (Western blot) (cryoinjured TA muscle [6]; non-injured and injured region of TA muscle, 6 days post-cryoinjury): can increase; also recorded: significantly increased all myogenesis markers

HGF: hepatocyte growth factor
percentage fraction of proliferative muscle stem cells (Pax7-positive Ki67-positive cells) [4, 8]: significantly increased; also recorded: could increase
percentage fraction of proliferative myoblasts (MyoD-positive Ki67-positive cells) [4, 8]: slightly increased; also recorded: could increase

Cc1cc(SCc2sc(-c3ccc(C(F)(F)F)c(F)c3)nc2C)ccc1OCC(=O)O [GW0742]
regenerative index (fraction of nuclei in embryonic MHC-positive myofibers) (cryoinjured TA muscle [2]; TA muscle 6.5 days post-injury): significantly decrease muscle regeneration
percentage fraction of proliferative muscle stem cells (Pax7-positive Ki67-positive cells) [4, 11]: surprisingly decreased
percentage fraction of proliferative myoblasts (MyoD-positive Ki67-positive cells) [4, 11]: no effect
